Laboratory results as given in EP3305290B1, “[…] […] FOR USE IN THE TREATMENT OF VIRAL INFECTIONS” (priority 2016, dated 2018).
Entries after “also recorded” stand apart in the source; their conditions may differ. Like-named read-outs stand apart in the source and are kept apart here.

How the values were obtained:
EBOV [1] = format: cell-based, Zaire Ebola virus (EBOV) strain Mayinga
EBOV [2] = format: cell-based, Zaire Ebola virus (EBOV) strain Mayinga; remark: listed apart in the source
[3] = test system: EBOV proteins VP40, NP and GP; format: cell-based, Zaire Ebola virus (EBOV) strain Mayinga
EBOV NP protein = format: cell-based, Zaire Ebola virus (EBOV) strain Mayinga
[4] = test system: proto-oncogenic kinase PIM1; experiment: Westernblot of PIM1 in primary macrophages; format: cell-based, human
5'-UTRs of Ebola mRNAs = experiment: cells; format: cell-based, EBOV; settings: for inhibition at 0.01 µM: Zaire ebolavirus
[5] = test system: 5'-UTRs of all seven EBOV mRNAs; format: cell-based
5'-UTR from HCoV-229E = format: cell-based
5'-UTR from MERS-CoV = format: cell-based
MERS-CoV [6] = experiment: microbe, parasite or virus in culture; format: cell-based, MERS-CoV (EMC/2012)
HCoV-229E [7] = experiment: microbe, parasite or virus in culture; format: cell-based, Human Coronavirus 229E (HCoV-229E)
rhinovirus A1 = experiment: organism not typed; format: cell-based, human Rhinovirus 1A (HRV1A); settings: for EC50: MRC5, 24 h
poliovirus [8] = experiment: microbe, parasite or virus in culture; format: cell-based, Poliovirus Typ 1 (strain Mahoney; PV)
Rhinovirus 1A = experiment: microbe, parasite or virus in culture; format: cell-based, human Rhinovirus 1A (HRV1A); settings: for EC50: Enterovirus, HeLa
HCoV-229E [9] = experiment: microbe, parasite or virus in culture; format: cell-based, Human Coronavirus 229E (HCoV-229E); settings: Human coronavirus 229E
poliovirus [10] = experiment: microbe, parasite or virus in culture; format: cell-based, Poliovirus Typ 1 (strain Mahoney; PV); settings: Enterovirus C
MERS-CoV [11] = experiment: microbe, parasite or virus in culture; format: cell-based, MERS-CoV (EMC/2012); remark: listed apart in the source
Coronaviruses = experiment: organism not typed; format: cell-based; settings: MRC5, read-out: EC50-values
viral dsRNA and nsp8 = experiment: Immunofluorescence of replication/transcription complexes in HCoV-229E infected MRC-5 cells; format: cell-based; settings: MOI 3, 12 h p.i.
[12] = test system: HCoV-229E proteins N and nsp8; experiment: Westernblot analysis, Method 2, HCoV-229E proteins N and nsp8; format: cell-based
Huh-7 cells [13] = experiment: Cell morphology of Huh-7 cells by light microscopy; format: cell-based, human; settings: 10 nM, three days
in vitro = settings: human
[14] = Cell toxicity (MTT) in hAEC; settings: human
[15] = Cell toxicity (MTT) in PBMCs; settings: human
Huh-7 cells [16] = experiment: WST-1 proliferation assay of Huh-7 cells
primary macrophages = experiment: WST-1 viability assay of primary macrophages

In the case of `COC(=O)[C@H]1[C@@H](O)[C@@]2(O)c3c(OC)cc(O[C@@H]4O[C@@H]([C@H](O)CO)CO[C@H]4OC)cc3O[C@@]2(c2ccc(OC)cc2)[C@@H]1c1ccccc1` [Silvestrol], the “antiviral effect (EBOV titer)” value (EBOV [1]) is reported as “comparable antiviral effect”, the “inhibition of EBOV infection (viral titers)” value (EBOV [1]) is reported as “substantially inhibits EBOV infection; also recorded: inhibits viral propagation efficiently; also recorded: strongly inhibits EBOV replication” and the “reduction of viral titers” value (EBOV [2]) is reported as “up to two orders of magnitude”. For the same compound, the “EBOV protein VP40 levels” value [3] was “strong reduction of VP40 levels; also recorded: inhibits the expression”, the “EBOV proteins NP and GP levels” value [3] was “Downregulation” and the “cellular protein tubulin level” value [3] was “not affected”. The “expression level of the EBOV NP protein” value (EBOV NP protein) was “potent downregulation; also recorded: strongly decreased levels”, the PIM1 levels ([4]; primary macrophages, 10 nM) was “strongly decreased levels” and the “duration of inhibitory effect on PIM1 levels” value ([4]; single dose 10 nM, macrophages) was “at least 5 days”. The “cellular β-Actin levels” value ([4]; single dose 10 nM, macrophages, up to 5 days) was “without affecting cellular β-Actin levels”, the “effect on IRES-driven renilla luciferase activity” value (5'-UTRs of Ebola mRNAs) was “no obvious effect” and the inhibition at 0.01 µM (5'-UTRs of Ebola mRNAs; HepG2, read-out: inhibitory effect on firefly luciferase activity) was 80%. For the same compound, the inhibition at 0.01 µM (5'-UTRs of Ebola mRNAs; HepG2, read-out: inhibitory effect on luciferase levels) was 30%, the “inhibition of firefly luciferase activity” value [5] was 23-33% and the “reduction of firefly luciferase activity” value [5] was “no significant reduction”. The “decrease of luciferase activity” value (5'-UTR from HCoV-229E) was about 40%, the “decrease of luciferase activity” value (5'-UTR from MERS-CoV) was about 40% and the “selectivity index (CC50/EC50)” value (MERS-CoV [6]) was 1538. The EC50 (MERS-CoV [6]; Middle East respiratory syndrome-related coronavirus, MRC5, 24 h) was 1.3 nM, the “EC50 fold lower in MRC-5 cells compared to infected Huh-7 cells” value (HCoV-229E [7]) was “about 10 fold” and the “selectivity index (CC50/EC50)” value (HCoV-229E [7]) was 566. For the same compound, the EC50 (HCoV-229E [7]; Human coronavirus 229E, MRC5, 24 h) was 3 nM, the “fold less sensitive compared to the analyzed coronaviruses” value (rhinovirus A1) was “about 100 fold” and the EC50 (rhinovirus A1) was 100 nM. For the same compound, the EC50 (rhinovirus A1; Rhinovirus A) was 100 nM, the “fold less sensitive / less efficient compared to MERS-CoV and HCoV-229E” value (poliovirus [8]) was “about 10 fold” and the EC50 (poliovirus [8]; Enterovirus C, MRC5, 24 h) was 20 nM. The “EC50 fold higher compared to HCoV-229E in Huh-7” value (Rhinovirus 1A) was “about 10 fold”, the EC50 (Rhinovirus 1A) was 400 nM and the EC50 (Rhinovirus 1A; 24 h, read-out: effective dose (EC50)) was 400 nM. For the same compound, the EC50 (HCoV-229E [9]; Huh-7) was 40 nM, the EC50 (HCoV-229E [9]; Huh-7, 24 h, read-out: effective dose (EC50)) was 40 nM and the EC50 (poliovirus [10]; Vero C1008) was about 100 nM. The EC50 (poliovirus [10]; Vero C1008, 24 h, read-out: effective dose (EC50)) was 100 nM, the selectivity index (MERS-CoV [11]) was 166 and the EC50 (MERS-CoV [11]; Middle East respiratory syndrome-related coronavirus, Epithelial cell, 48 h) was 3 nM. The EC50 (Coronaviruses) was 1 to 3 nM, the “levels of double-stranded viral RNA and nsp8 (RTC markers)” value (viral dsRNA and nsp8; 10 nM) was “drop down” and the “levels of double-stranded viral RNA and nsp8 (RTC markers)” value (viral dsRNA and nsp8; 100 nM) was “nearly no viral dsRNA or nsp8 can be detected”. The “level of N-protein” value ([12]; HCoV-229E infected primary MRC-5 cells, 10 nM, 12 h and 48 h p.i.) was “disappears”, the “HCoV-229E proteins N and nsp8” value ([12]; Huh-7 infected cells, 10 nM) was “detectable” and the N-protein ([12]; Huh-7 infected cells, 100 nM) was “only very low amounts”. For the same compound, the nsp8 ([12]; Huh-7 infected cells, 100 nM) was “completely absent”, the cell morphology (Huh-7 cells [13]) was “without changing cell morphology” and the CC50 (in vitro; CC50) was 1700 nM. For the same compound, the CC50 (in vitro; CC50 / cell toxicity) was over 1000 nM, the CC50 at 48 h [14] was 500 nM and the CC50 [15] was 400 nM. For the same compound, the “effect on proliferation of Huh-7 cells” value (Huh-7 cells [16]; higher concentrations up to 100 nM, compared to DMSO control) was “weakly affected; also recorded: weak effects on proliferation”, the “effect on proliferation of Huh-7 cells” value (Huh-7 cells [16]; up to 10 nM Silvestrol, WST-1, 48 h) was “no obvious effects on proliferation; also recorded: No effect of Silvestrol on proliferation” and the IC50 (primary macrophages; Homo sapiens, Primary macrophage, 72 h, read-out: IC50 (WST-1 viability assay), primary macrophages, 0.1 nM - 10 µM, 72 h) was about 96 nM. For the same compound, the “concentration with essentially no sign of toxicity” value (primary macrophages; primary macrophages, WST-1) was “at least 50 nM”.
